1 compound from US9364448B2, “Nitisinone for treatment of oculocutaneous/ocular albinism and for increasing pigmentation” (The United States of America, as represented by the …, priority 2010, dated 2016) can be followed below.

This assay relates to C57BL/6J-Tyr^c-h/c-h mice (OCA1b model). The experiment in a line: Coat and ocular pigmentation, clinical examination and electron microscopy, Tyr^c-h/c-h mice. It is filed as in vivo, mouse. On the procedure: Animal Husbandry and Clinical Examination. C57BL/6J mice (Stock #000664), C57BL/6JTyr^c-2J/c-2J mice (Stock #000058, MGI ID#1855985), and C57BL/6Tyr^c-h/c-h (Stock #000104, MGI ID#1855979) were obtained from the Jackson Laboratory (Bar Harbor, Me.). Mice were housed according to the institutional Animal Review Board standards with a 14 hour light/10 hour dark cycle. These studies conformed to the principles for laboratory animal research outlined by the Animal Welfare Act (NIH/HHS) and the ARVO Statement for the Use of Animals in Ophthalmic and Vision Research and were approved by the Institutional Animal Care and Use Committee of the National Eye Institute. Clinical examination and imaging of the anterior segment of mice were performed on gently-restrained, awake mice using a Haag-Streit BQ slit lamp and Imaging Module IM900® software (Haag-Streit, Inc., Mason, Ohio). Clinical examination of the posterior segment was performed on gently restrained, awake mice after dilation with one drop of 1% tropicamide (Alcon Laboratories, Inc., Fort Worth, Tex.) using an indirect ophthalmoscope (Keeler, Windsor, Berkshire, UK) with a 90D condensing lens (Volk, Mentor, Ohio). Fundus images were obtained on mice sedated with intraperitoneally injected […] diluted in normal saline. Images were obtained using a Nikon D.90 digital SLR camera with a Nikon 85 mm f/2.8D micro AF-S ED lens mounted to a custom-made aluminum stand, using a 5 cm long Hopkins rigid otoscope coupled to a Xenon Nova light source (175 watt) and fiberoptic cable (Karl Storz, Tuttlingen, Germany). Mice were euthanized with carbon dioxide according to institutional guidelines.
Drug Dosing and Monitoring.
Using the same protocol as described above, baseline plasma tyrosine, coat color (gross and microscopic), anterior segment pigment, and posterior segment pigment was documented for each mouse prior to initiating experiments. […] These treated mice were compared to an age- and gender-matched cohort of C57BL/6J-Tyr^c-h/c-h mice over the same time period. Corneal irritation due to NTBC treatment was monitored daily. At the start of treatment, an area of hair was plucked/shaved from each mouse's back, which has the effect of stimulating new hair growth and possibly new pigment deposition in the hair shaft. At the end of four weeks' time, plasma tyrosine concentrations were assessed in both treated and control animals.
Assessment of the effect treatment and the end of the experimental time period commences with photodocumentation of coat color, anterior segment pigment and posterior segment pigment of each mouse. The mice were sacrificed using standard CO2 euthanasia protocol. One eye from each mouse was submitted for light microscopy, while the other is prepared for electron microscopy. Liver and kidney tissues were collected and processed for light microscopy histology, to insure no pathology is associated with treatment. Additional blood samples were taken and frozen at the time of euthanasia, for possible future studies. Hair shafts in plucked and non-plucked areas were examined and photographed under light microscopy. Melanosome number and size was quantified in the retinal pigmented epithelial cells (RPE) and choroid of the posterior pole of both treated and untreated mice, in a masked fashion, as previously described above.

[1] abbreviates: Tyr^c-h/c-h (Himalayan) mice, 4 mg/kg orally every other day, one month.

For the compound `O=C1CCCC(=O)C1C(=O)c1ccc(C(F)(F)F)cc1[N+](=O)[O-]` [NTBC, 2-(-2-nitro-4 trifluoromethylbenzoyl)-1,3 cyclohexanedione], under setting [1], the Fundus pigmentation entry is recorded as “grossly unchanged” and the Iris pigmentation result is “some increase in iris pigmentation”. In addition, the “Coat pigmentation, treated vs control” value (Tyr^c-h/c-h mice, 4 mg/kg orally every other day, one month, shaved patch) is on record as “observable increase in pigmentation”. Where the note is “Tyr^c-h/c-h mice, dose as in Example 1 (1 mg/kg every other day), one month”, the Phenotypic changes result is recorded as “no phenotypic changes”. In addition, the “RPE and choroidal melanosome pigment content (electron microscopy)” value (Tyr^c-h/c-h mice, treated vs control, preliminary data, FIG. 3) was “significant increase”.
